According to ChEMBL document CHEMBL4017452, “Novel boronic acid derivatives of bis(indolyl) methane as anti-MRSA agents” (2017):
Converted amounts (≈) assume the structure as drawn. The source made the active and inactive calls. The rule behind the calls is not given here.

Each compound was assayed on Staphylococcus aureus (assay: Antibacterial activity against methicillin-resistant Staphylococcus aureus clinical isolates after 18 hrs by CLSI method).
Format: functional
In the case of `COc1ccc(C(c2c[nH]c3ccc([N+](=O)[O-])cc23)c2c[nH]c3ccc([N+](=O)[O-])cc23)cc1`, the MIC is reported as greater than 1000 µg/mL. With `O=[N+]([O-])c1cccc(C(c2c[nH]c3ccccc23)c2c[nH]c3ccccc23)c1` the MIC was 15.6 µg/mL (≈ 42.5 µM). In the case of `O=[N+]([O-])c1ccccc1C(c1c[nH]c2ccccc12)c1c[nH]c2ccccc12`, the MIC is reported as 500 µg/mL (≈ 1360 µM). In the case of `O=[N+]([O-])c1ccc(N/N=C/c2ccc(C(c3c[nH]c4ccccc34)c3c[nH]c4ccccc34)cc2)c([N+](=O)[O-])c1`, the MIC is reported as 500 µg/mL (≈ 942 µM). `Brc1ccc2[nH]cc(C(c3ccccc3)c3c[nH]c4ccc(Br)cc34)c2c1` gave an MIC greater than 1000 µg/mL. `Brc1ccc(C(c2c[nH]c3ccc(Br)cc23)c2c[nH]c3ccc(Br)cc23)cc1` was tested, and the MIC was 31.2 µg/mL (≈ 55.9 µM). `c1ccc(C(c2c[nH]c3ccccc23)c2c[nH]c3ccccc23)cc1` showed an MIC greater than 1000 µg/mL. `O=[N+]([O-])c1ccc(C(c2c[nH]c3ccccc23)c2c[nH]c3ccccc23)cc1` showed an MIC of 500 µg/mL (≈ 1360 µM). Work on `Cc1ccc(C(c2c[nH]c3ccc([N+](=O)[O-])cc23)c2c[nH]c3ccc([N+](=O)[O-])cc23)cc1` yielded an MIC greater than 1000 µg/mL. For `OB(O)c1ccccc1C(c1c[nH]c2ccccc12)c1c[nH]c2ccccc12`, the MIC was 3.91 µg/mL (≈ 10.7 µM). For `O=Cc1ccc(C(c2c[nH]c3ccccc23)c2c[nH]c3ccccc23)cc1`, the MIC was 500 µg/mL (≈ 1430 µM). Work on `Cc1ccc(C(c2c[nH]c3ccccc23)c2c[nH]c3ccccc23)cc1` yielded an MIC greater than 1000 µg/mL. For `O=[N+]([O-])c1ccc(C(c2c[nH]c3ccc(Br)cc23)c2c[nH]c3ccc(Br)cc23)cc1`, the MIC was 15.6 µg/mL (≈ 29.7 µM). Compound `COc1ccc2[nH]cc(C(c3ccc([N+](=O)[O-])cc3)c3c[nH]c4ccc(OC)cc34)c2c1` has an MIC greater than 1000 µg/mL. `Cc1ccc(C(c2c[nH]c3ccc(Br)cc23)c2c[nH]c3ccc(Br)cc23)cc1` gave an MIC of 62.5 µg/mL (≈ 126 µM). In the case of `COc1ccc2[nH]cc(C(c3ccc(/C=N/Nc4ccc([N+](=O)[O-])cc4[N+](=O)[O-])cc3)c3c[nH]c4ccc(OC)cc34)c2c1`, the MIC is reported as 250 µg/mL (≈ 423 µM). `COc1ccc(C(c2c[nH]c3ccc(OC)cc23)c2c[nH]c3ccc(OC)cc23)cc1` gave an MIC greater than 1000 µg/mL. `COc1ccc2[nH]cc(C(c3ccc(C(c4c[nH]c5ccc(OC)cc45)c4c[nH]c5ccc(OC)cc45)cc3)c3c[nH]c4ccc(OC)cc34)c2c1` showed an MIC of 500 µg/mL (≈ 728 µM). In the case of `COc1ccc2[nH]cc(C(c3ccccc3[N+](=O)[O-])c3c[nH]c4ccc(OC)cc34)c2c1`, the MIC is reported as 500 µg/mL (≈ 1170 µM). Work on `COc1ccc2[nH]cc(C(c3ccccc3)c3c[nH]c4ccc(OC)cc34)c2c1` yielded an MIC greater than 1000 µg/mL. For `O=[N+]([O-])c1ccc(C(c2c[nH]c3ccc([N+](=O)[O-])cc23)c2c[nH]c3ccc([N+](=O)[O-])cc23)cc1`, the MIC was 31.2 µg/mL (≈ 68.3 µM). `CN(C)c1ccc(C(c2c[nH]c3ccccc23)c2c[nH]c3ccccc23)cc1` was tested, and the MIC was greater than 1000 µg/mL. `COc1ccc2[nH]cc(C(c3ccc(N(C)C)cc3)c3c[nH]c4ccc(OC)cc34)c2c1` gave an MIC greater than 1000 µg/mL. `O=[N+]([O-])c1ccc2[nH]cc(C(c3ccc(C(c4c[nH]c5ccc([N+](=O)[O-])cc45)c4c[nH]c5ccc([N+](=O)[O-])cc45)cc3)c3c[nH]c4ccc([N+](=O)[O-])cc34)c2c1` showed an MIC of 500 µg/mL (≈ 670 µM). `O=[N+]([O-])c1ccc2[nH]cc(C(c3ccc(Br)cc3)c3c[nH]c4ccc([N+](=O)[O-])cc34)c2c1` was tested, and the MIC was 500 µg/mL (≈ 1020 µM). With `COc1ccc2[nH]cc(C(c3ccc(Br)cc3)c3c[nH]c4ccc(OC)cc34)c2c1` the MIC was 62.5 µg/mL (≈ 135 µM). `OB(O)c1cccc(C(c2c[nH]c3ccccc23)c2c[nH]c3ccccc23)c1` was tested, and the MIC was 3.91 µg/mL (≈ 10.7 µM). `Brc1ccc(C(c2c[nH]c3ccccc23)c2c[nH]c3ccccc23)cc1` gave an MIC of 500 µg/mL (≈ 1250 µM). `c1ccc2c(C(c3ccc(C(c4c[nH]c5ccccc45)c4c[nH]c5ccccc45)cc3)c3c[nH]c4ccccc34)c[nH]c2c1` showed an MIC of 1000 µg/mL (≈ 1760 µM). `OB(O)c1ccc(C(c2c[nH]c3ccccc23)c2c[nH]c3ccccc23)cc1` showed an MIC of 7.81 µg/mL (≈ 21.3 µM). `COc1ccc2[nH]cc(C(c3ccc(C)cc3)c3c[nH]c4ccc(OC)cc34)c2c1` gave an MIC greater than 1000 µg/mL.

The compounds below were run on Staphylococcus aureus (assay: Binding affinity to methicillin-resistant Staphylococcus aureus [(Ac)2-L-Lys-D-Ala-/-D-Ala] by isothermal titration calorimetric method).
In the case of `OB(O)c1cccc(C(c2c[nH]c3ccccc23)c2c[nH]c3ccccc23)c1`, the K is reported as 242 M⁻¹.

These compounds were tested on Staphylococcus aureus (assay: Binding affinity to methicillin-resistant Staphylococcus aureus [(Ac)2-L-Lys-D-Ala-/-D-Ala] assessed as change in enthalpy by isothermal titration calorimetric method).
`OB(O)c1cccc(C(c2c[nH]c3ccccc23)c2c[nH]c3ccccc23)c1` gave a deltaH of -0.0494 kcal/mol.

What follows are compounds tested on Staphylococcus aureus (assay: Bactericidal activity against methicillin-resistant Staphylococcus aureus at 1.6 to 8 ug/ml).
Format: functional
For `OB(O)c1ccc(C(c2c[nH]c3ccccc23)c2c[nH]c3ccccc23)cc1`, the Activity was “Active”.

The compounds below were run on Staphylococcus aureus (assay: Binding affinity to methicillin-resistant Staphylococcus aureus [(Ac)2-L-Lys-D-Ala-/-D-Ala] assessed as change in entropy by isothermal titration calorimetric method).
In the case of `OB(O)c1cccc(C(c2c[nH]c3ccccc23)c2c[nH]c3ccccc23)c1`, the deltaS is reported as -59.5 cal/mol/deg.

What follows are compounds tested on Staphylococcus aureus (assay: Bactericidal activity against methicillin-resistant Staphylococcus aureus at 0.8 to 4 ug/ml).
Format: functional
With `OB(O)c1ccccc1C(c1c[nH]c2ccccc12)c1c[nH]c2ccccc12` the Activity was “Active”. With `OB(O)c1cccc(C(c2c[nH]c3ccccc23)c2c[nH]c3ccccc23)c1` the Activity was “Active”.
